Data published in patent publication US20150175603A1, “TRICYCLIC COMPOUNDS AS KAT II INHIBITORS” (PFIZER INC., priority 2012, published 2015).
Structures can show the parent of a compound that is named as a salt.

biological target: human KAT II (hKAT II) enzyme (Homo sapiens, UniProt Q8N5Z0); experiment: KAT II Inhibition Spectra Assay; format: biochemical; conditions: single determination unless marked a (geometric mean of 2-4 determinations); decrease in OD370, L-kynurenine substrate, 37° C. for 15-20 h; read-out: KATII IC50
Protocol: KAT II Inhibition Spectra Assay
Formation of kynurenic acid (KYNA) is indirectly assessed by a decrease in light absorbance at 370 nm (OD370) as the L-kynurenine (KYN) substrate is converted by the human KAT II (hKAT II) enzyme into KYNA. An inhibitor would therefore inhibit the decrease in OD370.
The protocol was performed by placing the following reagents into a Costar 384 well black plate (30 μL total assay volume/well): • 10 μL of 3× concentrated compound; • 10 μL of 3× concentrated substrate mix (BGG (Sigma G-5009); 3 mM L-Kynurenine in 150 mM Tris Acetate (Sigma K3750); 3 mM α-ketoglutaric acid in 150 mM Tris Acetate (Sigma K2010); and 210 μM pyridoxal 5-phosphate (PLP) in 150 mM Tris Acetate (Sigma 9255)); and • 10 μL of 3× concentrated enzyme (15 nM enzyme in 150 mM Tris Acetate with 0.3% bovine serum).
Plates were sealed and incubated at 37° C. for 15-20 h before reading OD370 on a SpectraMax Plus plate reader. IC50s were generated by comparing the efficacy of compounds across a concentration range to inhibit a reduction in the OD370 value relative to assay wells with DMSO added in place of concentrated compound. Biological data for the Examples may be found in Table 2.

Sequence of human KAT II (hKAT II) enzyme (Q8N5Z0 30-425): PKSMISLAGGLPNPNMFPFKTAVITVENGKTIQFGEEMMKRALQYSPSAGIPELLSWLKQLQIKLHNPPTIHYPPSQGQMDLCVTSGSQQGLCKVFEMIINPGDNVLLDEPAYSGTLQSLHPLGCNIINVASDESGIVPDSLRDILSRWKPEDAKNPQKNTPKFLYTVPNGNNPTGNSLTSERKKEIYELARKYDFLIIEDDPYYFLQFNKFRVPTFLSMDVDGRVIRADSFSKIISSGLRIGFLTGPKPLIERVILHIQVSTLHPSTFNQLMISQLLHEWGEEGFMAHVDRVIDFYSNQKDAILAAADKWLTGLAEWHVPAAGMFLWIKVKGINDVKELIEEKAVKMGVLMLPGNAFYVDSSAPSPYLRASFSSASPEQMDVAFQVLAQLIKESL

Row | SMILES | IC50 [µM]
1 | COc1ccc(F)cc1-c1ccc2c(c1)CC(N)c1n[nH]c(=O)n1-2 (centres unmarked) [Example 32, 4—amino—7—(5—fluoro—2—methoxyphenyl)—4,5—dihydro[1,2,4]triazolo[4,3—a]quinolin—1(2H)—one, trifluoroacetate salt] | 0.302
2 | Cc1ccc(C)c(-c2ccc3c(c2)CC(N)c2n[nH]c(=O)n2-3)c1 (centres unmarked) [Example 38, 4—amino—7—(2,5-dimethylphenyl)—4,5—dihydro[1,2,4]triazolo[4,3—a]quinolin—1(2H)—one, trifluoroacetate salt] | 0.591
3 | NC1Cc2cc(Oc3ccccc3)cnc2-n2cnnc21 (single isomer, unassigned) [Example 9, 3—phenoxy—5,6—dihydro[1,2,4]triazolo[4,3—a][1,8]naphthyridin—6—amine ENT—2] | 1.31
4 | COc1cccc(Oc2ccc3c(c2)C[C@H](N)c2noc(=O)n2-3)c1 [Example 6, (4S)-4-Amino-7-(3-methoxyphenoxy)-4,5-dihydro[1,2,4]oxadiazolo[4,3-a]quinolin-1-one, hydrochloride salt] | 0.39
5 | Cn1cc(-c2ccc3c(c2)CC(N)c2n[nH]c(=O)n2-3)cn1 (centres unmarked) [Example 18, 4—amino—7—(1—methyl—1H—pyrazol—4—yl)—4,5—dihydro[1,2,4]triazolo[4,3—a]quinolin—1(2H)—one, trifluoroacetate salt] | 1.36
6 | COc1cc2c(cc1Cc1ccccc1)CC(N)c1n[nH]c(=O)n1-2 (centres unmarked) [Example 47, 4—amino—7—benzyl—8—methoxy—4,5—dihydro[1,2,4]triazolo[4,3—a]quinolin—1(2H)—one, hydrochloride salt] | 0.637
7 | COc1ncccc1-c1ccc2c(c1)CC(N)c1n[nH]c(=O)n1-2 (centres unmarked) [Example 33, 4—amino—7—(2—methoxypyridin—3—yl)—4,5—dihydro[1,2,4]triazolo[4,3—a]quinolin—1(2H)—one, trifluoroacetate salt] | 0.197
8 | NC1Cc2cc(-c3ccc(F)nc3)ccc2-n2c1n[nH]c2=O (centres unmarked) [Example 42, 4—amino—7—(6—fluoropyridin—3—yl)—4,5—dihydro[1,2,4]triazolo[4,3—a]quinolin—1(2H)—one, trifluoroacetate salt] | 0.849
9 | NC1Cc2cc(-c3ccccc3Cl)ccc2-n2c1n[nH]c2=O (centres unmarked) [Example 11, 4—amino—7—(2-chlorophenyl)—4,5—dihydro[1,2,4]triazolo[4,3—a]quinolin—1(2H)—one, trifluoroacetate salt] | 0.506
10 | NC1Cc2cc(-c3cccc(F)c3F)ccc2-n2c1n[nH]c2=O (centres unmarked) [Example 26, 4—amino—7—(2,3-difluorophenyl)—4,5—dihydro[1,2,4]triazolo[4,3—a]quinolin—1(2H)—one, trifluoroacetate salt] | 0.364
11 | NC1Cc2cc(-c3ccccc3F)ccc2-n2c1n[nH]c2=O (centres unmarked) [Example 29, 4—amino—7—(2—fluorophenyl)—4,5—dihydro[1,2,4]triazolo[4,3—a]quinolin—1(2H)—one, trifluoroacetate salt] | 0.361
12 | NC1Cc2cc(-c3ccc(F)cc3)ccc2-n2c1n[nH]c2=O (centres unmarked) [Example 24, 4—amino—7—(4—fluorophenyl)—4,5—dihydro[1,2,4]triazolo[4,3—a]quinolin—1(2H)—one. trifluoroacetate salt] | 1.08
13 | COc1cccc(-c2ccc3c(c2)CC(N)c2n[nH]c(=O)n2-3)c1 (centres unmarked) [Example 28, 4—amino—7—(3—methoxyphenyl)—4,5—dihydro[1,2,4]triazolo[4,3—a]quinolin—1(2H)—one, trifluoroacetate salt] | 0.357
14 | NC1Cc2cc(-c3cccc(Cl)c3)ccc2-n2c1n[nH]c2=O (centres unmarked) [Example 14, 4—amino—7—(3—chlorophenyl)—4,5—dihydro[1,2,4]triazolo[4,3—a]quinolin—1(2H)—one, trifluoroacetate salt] | 0.156
15 | NC1Cc2cc(-c3cc(C(F)(F)F)ccc3Cl)ccc2-n2c1n[nH]c2=O (centres unmarked) [Example 21, 4—amino—7—[2—chloro—5—(trifluoromethyl)phenyl]—4,5—dihydro[1,2,4]triazolo[4,3—a]quinolin—1(2H)—one, trifluoroacetate salt] | 1.25
16 | Cn1ncc2c(-c3ccc4c(c3)CC(N)c3n[nH]c(=O)n3-4)cccc21 (centres unmarked) [Example 15, 4—amino—7(1—methyl—1H—indazol—4—yl)—4,5—dihydro[1,2,4]triazolo[4,3—a]quinolin—1(2H)—one, trifluoroacetate salt] | 0.262
17 | CC(=O)c1cccc(-c2ccc3c(c2)CC(N)c2n[nH]c(=O)n2-3)c1 (centres unmarked) [Example 25, 7—(3—acetylphenyl)—4—amino—4,5—dihydro[1,2,4]triazolo[4,3—a]quinolin—1(2H)—one, trifluoroacetate salt] | 0.0919
18 | NC1Cc2cc(Oc3ccccc3)ccc2-n2c1n[nH]c2=O (centres unmarked) [Example 48, 4—amino—7—phenoxy—4,5—dihydro[1,2,4]triazolo[4,3—a]quinolin—1(2H)—one, hydrochloride salt] | 0.0837
19 | COc1ccccc1-c1ccc2c(c1)CC(N)c1n[nH]c(=O)n1-2 (centres unmarked) [Example 19, 4—amino—7—(2—methoxyphenyl)—4,5—dihydro[1,2,4]triazolo[4,3—a]quinolin—1(2H)—one, trifluoroacetate salt] | 0.751
20 | NC1Cc2cc(-c3ccccc3)ccc2-n2c1n[nH]c2=O (centres unmarked) [Example 45, 4—amino—7—phenyl—4,5-dihydro[1,2,4]triazolo[4,3—a]quinolin—1(2H)—one, hydrochloride salt] | 0.79
21 | NC1Cc2cc(-c3cccc4ncccc34)ccc2-n2c1n[nH]c2=O (centres unmarked) [Example 16, 4—amino—7—(quinolin—5—yl)—4,5—dihydro[1,2,4]triazolo[4,3—a]quinolin—1(2H)—one, trifluoroacetate salt] | 0.664
22 | NC1Cc2cc(-c3cccc(F)c3)ccc2-n2c1n[nH]c2=O (centres unmarked) [Example 34, 4—amino—7—(3—fluorophenyl)—4,5—dihydro[1,2,4]triazolo[4,3—a]quinolin—1(2H)—one, trifluoroacetate salt] | 0.415
23 | NC1Cc2cc(-c3cccnc3)ccc2-n2c1n[nH]c2=O (centres unmarked) [Example 20, 4—amino—7—(pyridin—3—yl)—4,5—dihydro[1,2,4]triazolo[4,3—a]quinolin—1(2H)—one, trifluoroacetate salt] | 0.546
